For series [1], the target named is T1, PfENT1 (Plasmodium falciparum, UniProt Q8IDM6). Description: Uptake competition vs [3H]hypoxanthine in PfENT1-expressing Xenopus oocytes. The following applies: for Ki / competition with uptake of 100 nM [3H]hypoxanthine: 10 min uptake; for Ki: one site fit, Cheng-Prusoff, mean ± SEM; for competition with uptake of 100 nM [3H]hypoxanthine: 2.5 and 10 mM competitor. In kind it is cell-based.

In series [2] the target is T1, PfENT1. Description: Uptake competition vs [3H]adenosine in PfENT1-expressing Xenopus oocytes. In kind it is cell-based.
Series [3] addresses T1, PfENT1. The series is described as follows: Time course of radiolabeled substrate uptake by PfENT1-expressing oocytes. The following applies: […] [3H] substrate. In kind it is cell-based.
In series [4] the target is T1, PfENT1. The settings on record: cited from earlier work.
The next series relates to intact parasites. The following applies: read-out: Km for uptake in intact parasites; Quashie et al. (2008); cited from earlier work.
The test system of the next series is PfHGXPRT. The following applies: read-out: Km for HGXPRT; cited from earlier work.
The test system of another series is P. falciparum. The following applies: cited from earlier work; for concentration toxic to parasite growth: as sole purine source in culture.
The mark [5] stands for this setting: Ki, Competition vs. [3H]hypoxanthine, 100 nM [3H]hypoxanthine.
[6] abbreviates: read-out: PfENT1 Km, Xenopus oocytes, Carter and coworkers.
Setting [7] is: read-out: PfENT1 transport Km, Xenopus oocytes, Parker et al.

Where two headings read alike, the source gives them in different places.

Consider 16 compounds from article PMC2783484 (Molecular and biochemical parasitology, 2009).

T1 sequence (Q8IDM6 whole entry): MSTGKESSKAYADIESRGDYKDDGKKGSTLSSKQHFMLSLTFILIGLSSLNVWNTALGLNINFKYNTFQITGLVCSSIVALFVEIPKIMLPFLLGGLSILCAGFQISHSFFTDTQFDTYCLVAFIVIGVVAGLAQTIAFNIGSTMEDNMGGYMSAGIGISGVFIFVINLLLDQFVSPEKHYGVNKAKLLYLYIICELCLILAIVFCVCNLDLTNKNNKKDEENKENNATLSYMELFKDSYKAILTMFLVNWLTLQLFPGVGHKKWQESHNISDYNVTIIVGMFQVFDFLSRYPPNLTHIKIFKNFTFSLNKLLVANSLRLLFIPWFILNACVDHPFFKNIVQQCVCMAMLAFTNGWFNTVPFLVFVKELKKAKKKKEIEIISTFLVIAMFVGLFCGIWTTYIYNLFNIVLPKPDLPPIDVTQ

What is called Ki is the equilibrium dissociation constant of an inhibitor or competing ligand from its target. `O=c1[nH]cnc2cc[nH]c12` [9-Deaza-hypoxanthine, 9-Deazahypoxanthine]: the Ki at PfENT1 [1] (setting [5]) was 710 ± 410 µM; on PfENT1 [2] it was 940 ± 270 µM.
By Km is commonly meant the substrate concentration at which the rate is half of its maximum. On to `Nc1ncnc2c1ncn2[C@@H]1O[C@H](CO)[C@@H](O)[C@H]1O` [Adenosine], for which the “uptake per oocyte at 60 min” value at PfENT1 [3] is roughly 7 pmol. Further, the Km at PfENT1 [4] (setting [6]) was 13 µM; on PfENT1 [4] (read-out: PfENT1 adenosine Km, Downie et al.) it was 1860 µM; on PfENT1 [4] (setting [7]), 320 µM.
On to `O=c1[nH]cnc2nc[nH]c12` [Hypoxanthine], for which, on PfENT1 [1] (2 mM unlabeled hypoxanthine, 100 nM [3H]hypoxanthine), the “block of [3H]hypoxanthine uptake” value is listed as ~ 90%. The Ki at PfENT1 [1] (setting [5]) stood at 300 ± 32 µM. Besides, the results for the Km with intact parasites, on PfENT1 [4] (setting [7]) and in the series with PfHGXPRT were 0.34 µM, 410 µM and 0.46 µM, respectively.
With `O=c1[nH]cnc2c([C@@H]3N[C@H](CO)[C@@H](O)[C@H]3O)c[nH]c12` [ImmH, Immucillin-H], on PfENT1 [1], the “competition with uptake of 100 nM [3H]hypoxanthine” value was “failed to compete”. Moreover, the “inhibition of parasite growth” value in the series with P. falciparum (10 μM immucillinH in the presence of 10 μM hypoxanthine) is recorded as “completely inhibited parasite growth”.
Turning to `Nc1ncnc2c(C3N[C@H](CO)[C@@H](O)[C@H]3O)c[nH]c12` (some centres unmarked) [Immucillin-A], on PfENT1 [1], the “competition with uptake of 100 nM [3H]hypoxanthine” value is “failed to compete”.
On the same count and under the same terms, then `Nc1nc2c([C@@H]3N[C@H](CO)[C@@H](O)[C@H]3O)c[nH]c2c(=O)[nH]1` [Immucillin-G], with “failed to compete”.
Turning to `Nc1ncnc2c1c(I)cn2[C@@H]1O[C@H](CO)[C@@H](O)[C@H]1O` [Iodotubercidin, 5′-iodotubercidin], the Ki on PfENT1 [1] (setting [5]) stood at 54 ± 8 µM; at PfENT1 [2], 66 ± 15 µM. On PfENT1 [2] (two-site fit vs [3H]adenosine), the “second site, fold higher apparent affinity” value is on record as 1000 fold.
On to `CSC[C@H]1N[C@@H](c2c[nH]c3c(=O)[nH]cnc23)[C@H](O)[C@@H]1O` [MT-ImmH], for which the “effect on malaria parasites during in vitro culture” value in the series on P. falciparum is given as “lethal”.
With `CSC[C@H]1O[C@@H](n2ccc3c(N)ncnc32)[C@H](O)[C@@H]1O` [MT-Tubercidin (10), 5′-methylthiotubercidin], the Ki on PfENT1 [1] (read-out: Ki, Competition vs. [3H]hypoxanthine, 100 nM [3H]hypoxanthine) amounted to 1100 µM.
As to `Nc1ncnc2c1ccn2[C@@H]1O[C@H](CO)[C@@H](O)[C@H]1O` [Tubercidin, 7-deazaadenosine], the Ki at PfENT1 [1] (setting [5]) was 420 ± 110 µM; at PfENT1 [2] it was 590 ± 100 µM. Besides, the “IC37, parasite growth inhibition” value with P. falciparum (in vitro culture in RPMI media supplemented with human serum) was 0.4 to 0.7 µM.
On to `Nc1ncnc2nc[nH]c12` [adenine], for which the Km at PfENT1 [4] (setting [7]) is 320 µM.
Turning to `NC[C@H]1O[C@@H](n2cc(I)c3c(Cl)ncnc32)[C@H](O)[C@@H]1O` [compound 1, 4-Chloro-5-iodo-7-(5-amino-5-deoxy-β-d-ribofuranosyl)pyrrolo[2,3-d]pyrimidine], the Ki is 3400 µM at PfENT1 [1] (setting [5]) and 1200 ± 300 µM at PfENT1 [2]. Besides, the “increase of transport Ki compared to tubercidin” value at PfENT1 [1] (vs [3H]hypoxanthine) came to 8 fold.
In the case of `Nc1nc2nc[nH]c2c(=O)[nH]1` [guanine], the “concentration toxic to parasite growth” value in the series with P. falciparum is greater than 50 µM. Also, in the series on PfHGXPRT, the Km is 0.3 µM.
On to `Nc1nc2c(ncn2[C@@H]2O[C@H](CO)[C@@H](O)[C@H]2O)c(=O)[nH]1` [guanosine], for which, in the series with P. falciparum, the “concentration toxic to parasite growth” value was greater than 50 µM.
As for `OC[C@H]1O[C@@H](n2cnc3c(O)ncnc32)[C@H](O)[C@@H]1O` [inosine], the Km at PfENT1 [4] (setting [6]) was 253 µM.
As for `O=c1[nH]c(=O)c2[nH]cnc2[nH]1` [xanthine], the “concentration toxic to parasite growth” value with P. falciparum was greater than 50 µM.
